Assay results: patent publication US6416987B1, “Mutants of thymidylate synthase and uses thereof” (Sloan Kettering Institute for Cancer Research, priority 1997, dated 2002)
Read-outs that look alike come from different tables or passages of the source.

Key:
[1] = system: mouse bone marrow cells transfected with mutant TS (TS175); test: CFU-GM / HPPCFU-C assay, marrow transfected with plasmid TS175; assay type: cell-based
Experimental: (§1) DNA into Mouse Bone Marrow Progenitor Cells Twenty micrograms of plasmid DNA (TS161 or TS175) and ten micrograms of DOTAP were diluted to 100 μl with HBS buffer and incubated at room temperature for 10 minutes. The mixture was added to 2×10^6 mouse bone marrow cells suspended in 0.5 ml of IMDM medium (in a 35 mm culture dish). After a 4 hour incubation at 37° C., 2 ml of IMDM with 30% FBS was added to each dish and the incubation was continued for 24 hours. […] Transfected cells prepared as described above were distributed into 10×35 mm dishes (3×10^5 cells in […] IMDM media/dish). […] Drug was added at the indicated concentration to each dish and the cells were cultured at 37° C. (5% CO2) for 10-14 days.

[2] = system: mouse bone marrow cells (N.B.M.); test: CFU-GM / HPPCFU-C assay, N.B.M.; assay type: cell-based
[3] = target: TS-negative FSthy21 cells transfected with wild-type human TS cDNA (Homo sapiens, UniProt P04818, P2L, cells depend on it); test: Growth inhibition assay (alamar Blue), TS-negative cells transfected with wild-type human TS cDNA; assay type: cell-based, mouse; details: Tomudex, 7-day exposure, read-out: IC50 values
TS-negative FSthy21 cells transfected with wild-type human TS cDNA, sequence (P04818 whole entry P2L): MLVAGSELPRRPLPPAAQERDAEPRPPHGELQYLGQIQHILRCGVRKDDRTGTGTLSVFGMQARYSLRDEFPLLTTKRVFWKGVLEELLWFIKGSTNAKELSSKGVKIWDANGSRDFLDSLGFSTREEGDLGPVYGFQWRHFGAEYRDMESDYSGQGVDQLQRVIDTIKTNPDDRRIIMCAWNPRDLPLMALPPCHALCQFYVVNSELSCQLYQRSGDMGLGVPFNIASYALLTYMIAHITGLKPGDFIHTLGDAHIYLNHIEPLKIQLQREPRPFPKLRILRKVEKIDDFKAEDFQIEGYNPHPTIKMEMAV

[4] = system: murine bone marrow cells infected with Wt TS vector; test: CFU-GM assay, marrow infected with Wt TS retroviral vector; assay type: cell-based
cell growth = details: cited from earlier work
[5] = target: TS-negative FSthy21 cells transfected with I108A mutant human TS cDNA (Homo sapiens, UniProt P04818, P2L/I108A, cells depend on it); test: Growth inhibition assay (alamar Blue), I108A transfectants; details: read-out: IC50 values, Tomudex, 7-day exposure
TS-negative FSthy21 cells transfected with I108A mutant human TS cDNA, sequence (P04818 whole entry P2L/I108A): as the sequence (P04818 whole entry P2L) above, with I108A counted along it
Experimental: The mouse TS-negative FSthy21 cells were used as the host for DNA transfections. This cell line, which is a TS-deficient derivative of mouse FM3A cells, was routinely maintained in MEM medium supplemented with 10% fetal bovine serum and 10×10^−5 M thymidine. Transfections were performed by DOTAP, using 10 μg of DNA/culture. Four days after transfection, cells were placed in selective medium, which contain no thymidine and reduced folate. Colonies having the ability to grow in the absence of thymidine were pooled and propagated as a mass culture.
Logarithmically growing suspension mouse TS-20 negative FSthy21 cells transfected with wild-type or variant human TS cDNA were seeded in 96-well plates at 1,000 cells/well in 180 μl of complete medium. […] Cell viability was measured by the alamar Blue™ assay. This method incorporates an oxidation-reduction (REDOX) indicator that both fluoresces and changes color in response to chemical reduction of growth medium resulting from cell growth. To above 96-well cultured cells, 25 μl of Alamar Blue (Alamar, Sacramento, Calif.) (10% of incubation volume) were added according to the manufacturer's instructions. The culture 96-well plates were then incubated at 37° C. for 4 hours. Viable cells induce chemical reduction of the media which results in a change in REDOX color from blue to red. The intensity of red color (and fluoresces) is proportional to the viable cells. After incubation, fluorescence is was read at 530-560 nm excitation wavelength and 590 nm emission wavelength by an automated plate reader (model EL340; Bio-Tek). Drug concentrations needed to reduce cell growth by 50% (IC50 values) were determined graphically by plotting of cell growth verses inhibitor concentration.
The effect of three antifolates and FdUrd on the growth characteristics of transfectants that stably express various TS proteins was evaluated by cytotoxicity studies. Cell growth was measured by the alamar blue assay. IC50 values were calculated as the concentration of inhibitor required to inhibit growth by 50% compared to wild-type transfected cells grown under identical conditions.

[6] = system: murine bone marrow cells infected with I108A mut-TS vector; test: CFU-GM assay, marrow infected with I108A mut-TS retroviral vector; assay type: cell-based
Excerpt: (§2) The following tables 15-17 summarize additional proof that these mutants confer resistance to chemotherapeutic agents by increasing the number of drug resistant CFU-GM colonies formed by murine bone marrow cells infected with retroviral vectors containing these mutant TS cDNAs.

TS = TS (Homo sapiens, UniProt P04818); details: enzyme assays; cited from earlier work
TS, sequence (P04818 whole entry): as the sequence (P04818 whole entry P2L) above, with L2P counted along it

Normal Bone Marrow cells = test: CFU-GM assay, Normal Bone Marrow (retroviral vector study); assay type: cell-based, murine
Excerpt: as §2

[7] = system: mouse bone marrow cells transfected with wild type TS (TS161); test: CFU-GM / HPPCFU-C assay, marrow transfected with plasmid TS161; assay type: cell-based
Experimental: as §1

FPGS = FPGS (Homo sapiens, UniProt Q05932); details: cited from earlier work
FPGS, sequence (Q05932 43-587, species assumed): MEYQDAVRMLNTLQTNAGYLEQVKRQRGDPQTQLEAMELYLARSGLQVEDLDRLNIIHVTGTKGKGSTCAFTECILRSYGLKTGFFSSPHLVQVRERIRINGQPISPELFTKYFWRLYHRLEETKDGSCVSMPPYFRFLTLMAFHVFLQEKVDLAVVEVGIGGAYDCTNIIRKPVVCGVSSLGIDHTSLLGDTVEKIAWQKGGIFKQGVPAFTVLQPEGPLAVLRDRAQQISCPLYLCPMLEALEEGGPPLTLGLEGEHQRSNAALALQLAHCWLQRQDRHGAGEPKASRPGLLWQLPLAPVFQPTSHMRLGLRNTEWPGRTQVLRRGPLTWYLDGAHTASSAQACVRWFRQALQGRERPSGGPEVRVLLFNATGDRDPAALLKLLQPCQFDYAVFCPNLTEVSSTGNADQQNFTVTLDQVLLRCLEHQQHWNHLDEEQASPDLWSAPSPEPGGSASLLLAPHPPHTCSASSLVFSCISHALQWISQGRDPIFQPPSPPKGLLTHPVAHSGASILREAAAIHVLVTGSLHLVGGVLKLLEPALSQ

**Q.** What does the source list for Cc1nc2ccc(CN(C)c3ccc(C(=O)N[C@@H](CCC(=O)O)C(=O)O)s3)cc2c(=O)[nH]1 [Tomudex, N-(5-[N-(3,4-dihydro-2-methyl-4-oxoquinazolin-6-ylmethyl)-N-methylamino-]-2-thenoyl)-L-glutamic acid]?
**A.** CFU-GM colonies ([1]; tomudex 1 × 10^−8 M): 64; CFU-GM colonies, % in parentheses ([1]; tomudex 1 × 10^−8 M): 44%; HPPCFU-C colonies ([1]; tomudex 1 × 10^−8 M): 9; HPPCFU-C colonies, % in parentheses ([1]; tomudex 1 × 10^−8 M): 6%; CFU-GM colonies ([1]; tomudex 2 × 10^−8 M): 14; CFU-GM colonies, % in parentheses ([1]; tomudex 2 × 10^−8 M): 10%; CFU-GM colonies ([2]; tomudex 1 × 10^−8 M): 14; CFU-GM colonies, % in parentheses ([2]; tomudex 1 × 10^−8 M): 17%; HPPCFU-C colonies ([2]; tomudex 1 × 10^−8 M): 0; CFU-GM colonies ([2]; tomudex 2 × 10^−8 M): 0; GI50 ([3]; wild-type/clone (1) [161-1]): 2.37 ± 0.18 nM; GI50 ([3]; wild-type/clone (2) [161-2]): 1.8 ± 0.47 nM; GI50 ([3]; wild-type/clone (3) [161-3]): 3.37 ± 0.34 nM; CFU-C ([4]; Tomudex 1 × 10^−8 M): 33; CFU-C, % in parentheses ([4]; Tomudex 1 × 10^−8 M): 20%; HPPCFU-C ([4]; Tomudex 1 × 10^−8 M): 10; HPPCFU-C, % in parentheses ([4]; Tomudex 1 × 10^−8 M): 23%; CFU-C ([4]; Tomudex 2 × 10^−8 M): 10; CFU-C, % in parentheses ([4]; Tomudex 2 × 10^−8 M): 6%; more active in inhibiting cell growth than CB3717 (cell growth): 500 fold; GI50 ([5]; 1108A/clone (1) [175-1]): 97.9 ± 17.1 nM; GI50 ([5]; 1108A/clone (2) [175-2]): 76.8 ± 7.3 nM; GI50 ([5]; 1108A/clone (3) [175-3]): 174 ± 7 nM; CFU-C ([6]; Tomudex 1 × 10^−8 M): 53; CFU-C, % in parentheses ([6]; Tomudex 1 × 10^−8 M): 36%; HPPCFU-C ([6]; Tomudex 1 × 10^−8 M): 26; HPPCFU-C, % in parentheses ([6]; Tomudex 1 × 10^−8 M): 53%; CFU-C ([6]; Tomudex 2 × 10^−8 M): 25; CFU-C, % in parentheses ([6]; Tomudex 2 × 10^−8 M): 15%; less potent as a TS inhibitor than CB3717 (TS): 20 times; CFU-C (Normal Bone Marrow cells; Tomudex 1 × 10^−8 M): 16; CFU-C, % in parentheses (Normal Bone Marrow cells; Tomudex 1 × 10^−8 M): 10%; HPPCFU-C (Normal Bone Marrow cells; Tomudex 1 × 10^−8 M): 0; CFU-C (Normal Bone Marrow cells; Tomudex 2 × 10^−8 M): 0; CFU-GM colonies ([7]; tomudex 1 × 10^−8 M): 28; CFU-GM colonies, % in parentheses ([7]; tomudex 1 × 10^−8 M): 26%; HPPCFU-C colonies ([7]; tomudex 1 × 10^−8 M): 0; CFU-GM colonies ([7]; tomudex 2 × 10^−8 M): 0; affinity for FPGS higher than that of CB3717 (FPGS): 30 times
